Data as given in patent US20250304582A1, “Bicyclic Ureas As Kinase Inhibitors” (Incyte Corporation, priority 2024, published 2025).

Tests used:
[1] = target: T1, catalytic domain (JH1, amino acids 808-1132) of human JAK2 (Homo sapiens, UniProt O60674); assay: JAK2 HTRF Enzyme Activity Assay; assay type: biochemical; settings: ATP (30 μM or 1 mM; not stated which for the table), 60 minutes at 25° C.; read-out: JAK2 HTRF (Ex. D)
T1 construct: catalytic domain (JH1, amino acids 808-1132) of human JAK2; His (N); purchased BPS Bioscience 40450; host or cells: baculovirus expression system
T1 sequence (O60674 808-1132): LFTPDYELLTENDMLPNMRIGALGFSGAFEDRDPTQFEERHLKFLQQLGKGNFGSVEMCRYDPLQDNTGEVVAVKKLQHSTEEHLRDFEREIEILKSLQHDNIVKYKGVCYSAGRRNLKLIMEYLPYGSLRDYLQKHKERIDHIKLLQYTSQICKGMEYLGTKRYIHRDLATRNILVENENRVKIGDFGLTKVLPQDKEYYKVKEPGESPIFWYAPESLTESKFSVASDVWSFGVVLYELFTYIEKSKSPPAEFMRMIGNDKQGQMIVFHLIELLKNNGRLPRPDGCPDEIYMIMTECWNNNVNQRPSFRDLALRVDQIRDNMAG
Method: Example D. JAK2 HTRF Enzyme Activity Assay
JAK2 enzyme activity assays utilize catalytic domain (JH1, amino acids 808-1132) of human JAK2 expressed as N-terminal His-tagged protein in a baculovirus expression system (BPS Bioscience, Catalog #40450). The assays was conducted in black 384-well polystyrene plates in a final reaction volume of 20 μL. JAK2 (0.015 nM) was incubated with compounds (100 nL serially diluted in DMSO) in the presence of ATP (30 μM or 1 mM) and 500 nM Biotin-labeled EQEDEPEGDYFEWLE (SEQ ID NO.: 1) peptide (BioSource International, custom synthesis) in assay buffer (50 mM Tris, pH=7.5, 10 mM MgCl2, 0.01% Brij-35, 0.1% BSA, 1 mM EGTA, 5% Glycerol and 5 mM DTT) for 60 minutes at 25° C. The reactions were stopped by the addition of 10 μL of detection buffer (50 mM Tris, pH 7.8, 0.5 mg/mL BSA, 150 mM NaCl), supplemented with EDTA, LANCE Eu-W1024 anti-phosphotyrosine (PY20), (PerkinElmer, Catalog #AD0067) and Streptavidin SureLight APC (PerkinElmer Catalog #CR130-100), for a final concentration of 15 mM, 1.5 nM and 75 nM, respectively. HTRF signals were read after 30 minutes incubation at room temperature on a PHERAstar FS plate reader (BMG LABTECH). Data was analyzed with TDBS Xlfit and GraphPad Prism 5.0 software using a four parameter dose response curve to determine IC50 for each compound.

[2] = target: T2, pseudo-kinase domain (JH2, amino-acids 536-812) of human Wild Type JAK2 (Homo sapiens, UniProt O60674, F794H/W659A/W777A); assay: JAK2 LanthaScreen JH2-WT Binding Assay; settings: 50 nM Fluorescent JAK2-JH2 Tracer, 1 hour at 25° C.; read-out: JH2 BIND WT (EX. B)
T2 construct: JH2, amino-acids 536-812 with 3 surface mutations W659A, W777A, F794H; His (C); purchased BPS Bioscience 79463; host or cells: baculovirus expression system
T2 sequence (O60674 536-812 W659A/W777A/F794H): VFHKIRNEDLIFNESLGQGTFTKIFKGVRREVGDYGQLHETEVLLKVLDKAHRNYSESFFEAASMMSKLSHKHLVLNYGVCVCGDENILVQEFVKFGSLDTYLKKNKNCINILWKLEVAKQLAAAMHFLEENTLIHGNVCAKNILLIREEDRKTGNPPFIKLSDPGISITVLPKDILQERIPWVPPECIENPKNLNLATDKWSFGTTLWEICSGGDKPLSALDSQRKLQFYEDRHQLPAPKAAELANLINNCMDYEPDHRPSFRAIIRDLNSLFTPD
Method: Example B. JAK2 LanthaScreen JH2-WT Binding Assay
(§1) JAK2 JH2-WT binding assay utilizes pseudo-kinase domain (JH2, amino-acids 536-812 with 3 surface mutations W659A, W777A, F794H) of human Wild Type JAK2 expressed as C-terminal His-Avi-tagged, biotinylated protein in a baculovirus expression system (BPS Bioscience, Catalog #79463). The assay was conducted in black 384-well polystyrene plates in a final reaction volume of 20 μL. JAK2 JH2-WT (0.145 nM) was incubated with compounds (100 nL serially diluted in DMSO) in the presence of 50 nM Fluorescent JAK2-JH2 Tracer (MedChem Express Catalog #HY-102055) and 0.25 nM Streptavidin-Tb cryptate (Cisbio Part #610SATLB) in assay buffer (50 mM Tris, pH=7.5, 10 mM MgCl2, 0.01% Brij-35, 0.1% BSA, 1 mM EGTA, 5% Glycerol and 5 mM DTT). Non-specific binding was accessed in the presence of 2 mM ATP. After incubation for 1 hour at 25° C., LanthaScreen signals were read on a PHERAstar FS plate reader (BMG LABTECH). Data was analyzed with IDBS Xlfit and GraphPad Prism 5.0 software using a four parameter dose response curve to determine IC50 for each compound.

[3] = target: T3, catalytic domain (JH1, amino acids 826-1132) of human JAK2 (Homo sapiens, UniProt O60674); assay: JAK2 LanthaScreen JH1 Binding Assay; settings: 50 nM fluorescent JAK2-JH1 tracer, 2 hours at 25° C.; read-out: JH1 BIND (EX. A)
T3 construct: catalytic domain (JH1, amino acids 826-1132) of human JAK2; FLAG (N); purchased Carna Biosciences 08-445-20N; host or cells: baculovirus expression system
T3 sequence (O60674 826-1132): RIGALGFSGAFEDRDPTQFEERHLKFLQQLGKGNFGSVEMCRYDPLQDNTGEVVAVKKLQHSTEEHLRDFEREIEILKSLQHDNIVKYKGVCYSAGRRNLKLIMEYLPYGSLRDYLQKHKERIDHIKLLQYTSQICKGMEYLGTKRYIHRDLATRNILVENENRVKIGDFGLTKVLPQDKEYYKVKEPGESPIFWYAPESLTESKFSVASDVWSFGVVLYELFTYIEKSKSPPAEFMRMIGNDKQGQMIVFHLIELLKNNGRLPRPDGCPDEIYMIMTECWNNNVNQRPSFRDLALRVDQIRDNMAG
Method: Example A. JAK2 LanthaScreen JH1 Binding Assay
JAK2 JH1 binding assay utilizes catalytic domain (JH1, amino acids 826-1132) of human JAK2 expressed as N-terminal FLAG-tagged, biotinylated protein in a baculovirus expression system (Carna Biosciences, Product #08-445-20N). The assay was conducted in black 384-well polystyrene plates in a final reaction volume of 20 μL. JAK2 JH1 (1.5 nM) was incubated with compounds (100 nL serially diluted in DMSO) in the presence of 50 nM fluorescent JAK2-JH1 tracer and 0.5 nM Streptavidin-Tb cryptate (Cisbio Part #610SATLB) in assay buffer (50 mM Tris, pH=7.5, 10 mM MgCl2, 0.01% Brij-35, 0.1% BSA, 1 mM EGTA, 5% Glycerol and 5 mM DTT). Non-specific binding was accessed in the presence of 2 mM ATP. After incubation for 2 hours at 25° C., LanthaScreen signals were read on a PHERAstar FS plate reader (BMG LABTECH). Data was analyzed with IDBS Xlfit and GraphPad Prism 5.0 software using a four parameter dose response curve to determine IC50 for each compound.

[4] = target: T4, pseudo-kinase domain (JH2, amino-acids 536-812) of human V617F mutant JAK2 (Homo sapiens, UniProt O60674, F794H/V617F/W659A/W777A); assay: JAK2 LanthaScreen JH2-V617F Binding Assay; settings: 50 nM Fluorescent JAK2-JH2 Tracer, 1 hour at 25° C.; read-out: JH2 BIND V617F (Ex. C)
T4 construct: JH2, amino-acids 536-812 with 3 surface mutations W659A, W777A, F794H; His (C); purchased BPS Bioscience 79498; host or cells: baculovirus expression system
T4 sequence (O60674 536-812 V617F/W659A/W777A/F794H): as the sequence (O60674 536-812 W659A/W777A/F794H) above, with V82F counted along it
Method: Example C. JAK2 LanthaScreen JH2-V617F Binding Assay
as §1, with “JH2-V617F” for “JH2-WT”, “V617F mutant” for “Wild Type”, “#79498).” for “#79463).”, “JH2-V617F (0.26” for “JH2-WT (0.145”

| Compound | IC50 [1] [nM] | IC50 [2] [nM] | IC50 [3] [nM] | IC50 [4] [nM] |
| --- | --- | --- | --- | --- |
| [2H]C([2H])([2H])n1c(=O)n([C@@H]2CC[C@@H](NC(=O)OC)C2)c2cc(Nc3cc(C(C)(C)O)c4cccc(C(F)(F)F)c4n3)ncc21 [Example 9, Methyl ((1R,3R)-3-(6-((4-(2-hydroxypropan-2-yl)-8-(trifluoromethyl)quinolin-2-yl)amino)-3-(methyl-d3)-2-oxo-2,3-dihydro-1H-imidazo[4,5-c]pyridin-1-yl)cyclopentyl)carbamate] | > 1000 | ≤ 10 | > 1000 | ≤ 10 |
| [2H]C([2H])([2H])n1c(=O)n([C@H]2C[C@H](NC(=O)OC3CC3)C2)c2cc(Nc3cc(C(C)(C)O)c4cccc(C(F)(F)F)c4n3)ncc21 [Example 16, Cyclopropyl ((trans)-3-(6-((4-(2-hydroxypropan-2-yl)-8-(trifluoromethyl)quinolin-2-yl)amino)-3-(methyl-d3)-2-oxo-2,3-dihydro-1H-imidazo[4,5-c]pyridin-1-yl)cyclobutyl)carbamate] | 100 to 500 | ≤ 10 | 100 to 500 | ≤ 10 |
| [2H]C([2H])([2H])n1c(=O)n([C@@H]2CC[C@](C)(NC(=O)OC)C2)c2cc(Nc3cc(C(C)(C)O)c4cccc(C(F)(F)F)c4n3)ncc21 [Example 13, Methyl ((1S,3R)-3-(6-((4-(2-hydroxypropan-2-yl)-8-(trifluoromethyl)quinolin-2-yl)amino)-3-(methyl-d3)-2-oxo-2,3-dihydro-1H-imidazo[4,5-c]pyridin-1-yl)-1-methylcyclopentyl)carbamate] | > 1000 |  |  | ≤ 10 |
| [2H]C([2H])([2H])n1c(=O)n([C@@H]2CC[C@](C)(NC(=O)OCCOC)C2)c2cc(Nc3cc(C(C)(C)O)c4cccc(C(F)(F)F)c4n3)ncc21 [Example 14, 2-Methoxyethyl ((1S,3R)-3-(6-((4-(2-hydroxypropan-2-yl)-8-(trifluoromethyl)quinolin-2-yl)amino)-3-(methyl-d3)-2-oxo-2,3-dihydro-1H-imidazo[4,5-c]pyridin-1-yl)-1-methylcyclopentyl)carbamate] | > 1000 |  |  | ≤ 10 |
| [2H]C([2H])([2H])n1c(=O)n(C23CCC(NC(=O)OC)(C2)C3)c2cc(Nc3cc(C(C)(C)O)c4cccc(C(F)(F)F)c4n3)ncc21 [Example 32, Methyl (4-(6-((4-(2-hydroxypropan-2-yl)-8-(trifluoromethyl)quinolin-2-yl)amino)-3-(methyl-d3)-2-oxo-2,3-dihydro-1H-imidazo[4,5-c]pyridin-1-yl)bicyclo[2.1.1]hexan-1-yl)carbamate] | > 1000 |  |  | ≤ 10 |
| [2H]C([2H])([2H])n1c(=O)n(C23CC(NC(=O)OC)(C2)C3)c2cc(Nc3ccc4cccc(C(F)(F)F)c4n3)ncc21 [Example 33, Methyl (3-(3-(methyl-d3)-2-oxo-6-((8-(trifluoromethyl)quinolin-2-yl)amino)-2,3-dihydro-1H-imidazo[4,5-c]pyridin-1-yl)bicyclo[1.1.1]pentan-1-yl)carbamate] | > 1000 |  |  | 10 to 100 |
| [2H]C([2H])([2H])n1c(=O)n([C@@H]2CC[C@@]([2H])(NC(=O)OC)C2)c2cc(Nc3cc(C(C)(C)O)c4cccc(C(F)(F)F)c4n3)ncc21 [Example 12, Methyl ((1R,3R)-3-(6-((4-(2-hydroxypropan-2-yl)-8-(trifluoromethyl)quinolin-2-yl)amino)-3-(methyl-d3)-2-oxo-2,3-dihydro-1H-imidazo[4,5-c]pyridin-1-yl)cyclopentyl-1-d)carbamate] | > 1000 |  |  | ≤ 10 |
| [2H]C([2H])([2H])n1c(=O)n([C@@H]2CC[C@@]([2H])(NC(=O)OC)C2)c2cc(Nc3cc(C)c4nc(C)c(I)n4n3)ncc21 [Example 46, Methyl ((1R,3R)-3-(6-((3-iodo-2,8-dimethylimidazo[1,2-b]pyridazin-6-yl)amino)-3-(methyl-d3)-2-oxo-2,3-dihydro-1H-imidazo[4,5-c]pyridin-1-yl)cyclopentyl-1-d)carbamate] | > 1000 |  |  | ≤ 10 |
| [2H]C([2H])([2H])n1c(=O)n([C@@H]2CC[C@]([2H])(NC(=O)OC)C2)c2cc(Nc3cc(C(C)(C)O)c4cccc(C(F)(F)F)c4n3)ncc21 [Example 11, Methyl ((1S,3R)-3-(6-((4-(2-hydroxypropan-2-yl)-8-(trifluoromethyl)quinolin-2-yl)amino)-3-(methyl-d3)-2-oxo-2,3-dihydro-1H-imidazo[4,5-c]pyridin-1-yl)cyclopentyl-1-d)carbamate] | > 1000 |  |  | ≤ 10 |
| [2H]C([2H])([2H])n1c(=O)n([C@@H]2CC[C@@H](NC(=O)OC)C2)c2cc(Nc3cc(C(C)(C)O)c4cccc(C(C)(C)C#N)c4n3)ncc21 [Example 34, Methyl ((1R,3R)-3-(6-((8-(2-cyanopropan-2-yl)-4-(2-hydroxypropan-2-yl)quinolin-2-yl)amino)-3-(methyl-d3)-2-oxo-2,3-dihydro-1H-imidazo[4,5-c]pyridin-1-yl)cyclopentyl)carbamate] | > 1000 |  |  | 10 to 100 |
